System: human colon carcinoma (HT29)
Assay: Antitumor activity on human colon carcinoma (HT29) transplanted in nude mice
Assay type: in vivo
Conditions: for TI % (tumor inhibition %): calculated at day 46, HT29 sc in nude mice
Procedure: Campound (A1a) was tested on human colon carcinoma (HT29) transplanted in nude mice, in comparison with the free drug 7-ethyl-10-hydroxycamptothecin (12) by i.v. route. A1a was found non toxic at all tested doses and gave 98% tumor inhibition at the highest tested dose of 20 mg/kg (Table 1).

[1] = dose 10 mg/kg i.v. q4dx6, total dose 60 mg/kg
[2] = dose 20 mg/kg i.v. q4dx6, total dose 120 mg/kg
[3] = dose 30 mg/kg i.v. q4dx6, total dose 180 mg/kg
[4] = dose 40 mg/kg i.v. q4dx6, total dose 240 mg/kg

CCc1c2c(nc3ccc(O)cc13)-c1cc3c(c(=O)n1C2)COC(=O)[C@]3(O)CC [Compound 12, 7-ethyl-10-hydroxycamptothecin, reference compound]
Tox (number of mice died for toxicity/total number mice) [1]: 0/7 | TI % (tumor inhibition %) [1]: 67% | Tox (number of mice died for toxicity/total number mice) [2]: 3/7 | TI % (tumor inhibition %) [2]: 97%

Copolymer of N-(2-hydroxypropyl)methacryloylamide, 7-ethyl-10-hydroxy-20-O-[N-methacryloyl-6-aminohexanoyl-(methionyl-sulfoxide)-glycyl-(S-benzyl-cysteinyl)-leucyl-glycyl]camptothecin and N-(2-hydroxypropyl)methacryloylglycinamide [Compound A1a]
toxicity (all tested doses, i.v., nude mice bearing HT29): non toxic | Tox (number of mice died for toxicity/total number mice) [1]: 0/7 | TI % (tumor inhibition %) [1]: 85% | Tox (number of mice died for toxicity/total number mice) [2]: 0/7 | TI % (tumor inhibition %) [2]: 98% | TI % (tumor inhibition %) (dose 20 mg/kg i.v. q4dx6, total dose 120 mg/kg, listed as Ala): 97% | Tox (number of mice died for toxicity/total number mice) [3]: 0/7 | TI % (tumor inhibition %) [3]: 97% | Tox (number of mice died for toxicity/total number mice) [4]: 0/7 | TI % (tumor inhibition %) [4]: 97%

Reference: US20030195152A1, “Polymeric conjugates of antitumor agents” (priority 2000, published 2003)
